Measured values taken from patent publication US20220185764A1, “Resveratrol derivative and anti-fibrotic method using the same” (TAIZHOU HUAYUAN MEDICINAL TECH CO. LTD., priority 2020, published 2022).

Columns and labels:
[1] = tested on: CCl4 induced liver fibrosis in rats; assay: Evaluation of anti-liver fibrosis in vivo (CCl4 induced liver injury/fibrosis); set-up: species or system SD rats; conditions: test compound 10 mg/ml, 0.5 ml/100 g intragastric 1 time/day, 8 weeks; for GSH-PX / HYP / MDA / SOD: liver tissue, ELISA kit, CCl4 rats; for ALP / ALT / AST / LDH: serum, male SD rats, 40% CCl4 oil i.p. 1 time/3 days
Description: CCl4 was prepared into a 40% CCl4 oil with commercially available non-genetically modified peanut oil. The test compound was prepared into a 10 mg/ml solution with a 0.5% sodium carboxymethyl cellulose solution, for later use.
Adult male SD rats were randomly divided into a normal control group, a model group and a drug treatment group. The rats in the normal control group were intraperitoneally injected with peanut oil (0.3 ml/100 g, 1 time/3 days), and intragastrically administrated with 0.5% sodium carboxymethyl cellulose solution (0.5 ml/100 g, 1 time/1 day). The rats in the model group were intraperitoneally injected with 40% CCl4 oil (0.3 ml/100 g, 1 time/3 days), and intragastrically administrated with 0.5% sodium carboxymethyl cellulose solution (0.5 ml/100 g, 1 time/day). The rats in the drug treatment group were intraperitoneally injected with 40% CCl4 oil (0.3ml/100 g, 1 time/3 days), and intragastrically administrated with the 0.5% sodium carboxymethyl cellulose solution of the test compound (0.5 ml/100 g, 1 time/day). Rats in each group were bred in an air-conditioned animal laboratory with a temperature of (23±1)° C. and a relative humidity of (45±5)%, with day and night alternating every 12 hours, and they were free to eat and drink.
After being fed for 8 weeks, all the rats were fasted for 12 hours. After anesthesia, the blood of the rat was collected from the femoral artery, and the whole liver tissue was quickly weighed and frozen in liquid nitrogen for later use. 3 rats in each group were taken and their livers were cut, soaked into formalin solution for 24 h and prepared to paraffin-embedded pathological sections. The whole blood of the rats was centrifuged at 3000 r/min for 10min to obtain the separated serum, which was then frozen and stored for later use.
Alanine aminotransferase (ALT), aspartate aminotransferase (AST), alkaline phosphatase (ALP), and lactate dehydrogenase (LDH) in the serum were measured by Hitachi 7600 automatic biochemical analyzer.
The concentration of hydroxyproline (HYP) or malondialdehyde (MDA), and the activity of superoxide dismutase (SOD) or glutathione peroxidase(GSH-Px) in liver tissues were detected according to the corresponding operation steps of ELISA kit (Nanjing Jiancheng Biological Company).

[2] = tested on: bleomycin-induced pulmonary fibrosis in rats; assay: Evaluation of anti-pulmonary fibrosis in vivo (bleomycin-induced); set-up: species or system SD rats; conditions: lung tissue, 14th day
Description: Bleomycin (batch number: 16037911, Hisun Pfizer Co., Ltd.) was prepared into a 5 mg/mL solution with normal saline; and the test compound was prepared into a solution with a 0.5% sodium carboxymethyl cellulose solution to a certain concentration for later use.
Adult male SD rats were randomly divided into a normal control group, a model group and a drug treatment group. After the animals in each group were anesthetized by intraperitoneal injection of 20% urethane (10 mL/kg), they were incised in the middle of the neck to expose the trachea. The rats in the normal control group were injected with 0.2 ml normal saline into the trachea all at once, and intragastrically administrated with 0.5% sodium carboxymethyl cellulose solution (0.5 ml/100 g, 1 time/day) the next day. The rats in the model group were injected with 0.2 ml of bleomycin solution into the trachea all at once, and simultaneously intragastrically administrated with 0.5% sodium carboxymethyl cellulose solution (0.5 ml/100 g, 1 time/day). The rats in the drug treatment group were injected with 0.2 ml bleomycin solution into the trachea all at once and simultaneously intragastrically administrated with the 0.5% sodium carboxymethyl cellulose solution of the test compound at different concentrations (0.5 ml/100 g, 1 time/day). The rats in each group were bred in an air-conditioned animal laboratory with a temperature of (23±1)° C. and a relative humidity of (45±5)%, with day and night alternating every 12 hours, and they were free to eat and drink. The rats were fasted for 12 hours on the 14th day after administration. After anesthesia, the blood of the rat was collected from the femoral artery and the lung tissue was separated. The right lung was perfused with 10% neutral formaldehyde through the trachea and then was put into stationary liquid for fixation and pathological examination. The left lung was cryopreserved in a refrigerator at -80° C. for testing the biochemical indicators.
The contents of HYP, MDA, GSH and SOD in lung tissues were detected according to the corresponding operation steps of ELISA kit (Nanjing Jiancheng Biological Company).

[3] = tested on: liver function in mice; assay: Evaluation of subacute toxicity (continuous administration, liver function); assay type: in vivo; set-up: AST / ALP: unit not given here; conditions: serum; male ICR mice, 200 mg/kg intragastric once a day for 4 consecutive weeks
Description: Male ICR mice aged 6-8 weeks were fasted for 16 hours and randomly divided into groups, 5 mice per group. The test compound was formulated into a suspension with a 0.5% sodium carboxymethyl cellulose solution, and administered intragastrically at a concentration of 200 mg/kg, once a day for 4 consecutive weeks. After the last administration, the mice were fasted for 12 hours but were free to drink water during the fasting period. Then the mice were anesthetized. Blood was taken from the abdominal aorta and serum was prepared for the determination of blood biochemical and immunological indicators. EDTA anticoagulant blood was prepared for routine blood measurement. Except for some significant increase in transaminase (ALT, AST, […]) of some drug administration groups, there were no significant differences in other indicators among the groups.

[4] = dose 100 mg/kg intragastric 1 time/day
[5] = dose 50 mg/kg intragastric 1 time/day

SMILES | GSH-PX [1] | HYP [1] | MDA [1] | SOD [1] | ALP [1] | ALT [1] | AST [1] | LDH [1] | HYP [2, 4] | MDA [2, 4] | HYP [2, 5] | MDA [2, 5] | ALP [3] | ALT [3] | AST [3]
Oc1ccc(C=Cc2cc(O)cc(O)c2)cc1 [Resveratrol] | 174.33 ± 40.75 U/mg protein | 0.93 ± 0.15 μg/mg protein | 1.17 ± 0.35 nmol/mg protein | 28.09 ± 4.55 U/mg protein | 203.6 ± 43.9 U/L | 96.8 ± 41.9 U/L | 205.33 ± 85.3 U/L | 846.5 ± 261.2 U/L | 0.75 ± 0.34 μg/mg protein | 0.92 ± 0.33 nmol/mg protein | – | – | – | – | –
[2H]C([2H])([2H])Oc1ccc(/C=C/c2cc(OC)cc(OCCCC(C)(C)C(=O)O)c2)cc1 [Compound I-3b, 3-methoxy-4′-trideuterated methoxy-5-(4-methyl-4-carboxypentyloxy)-(E)-stilbene] | 194.09 ± 32.82 U/mg protein | 0.70 ± 0.61 μg/mg protein | 0.92 ± 0.43 nmol/mg protein | 31.33 ± 6.50 U/mg protein | 154.3 ± 65.0 U/L | 79.9 ± 43.8 U/L | 221.9 ± 109.4 U/L | 780.4 ± 152.3 U/L | 0.47 ± 0.10 μg/mg protein | 0.73 ± 0.06 nmol/mg protein | 0.51 ± 0.09 μg/mg protein | 0.81 ± 0.09 nmol/mg protein | 381.67 ± 221.42 | 36.57 ± 10.40 U/L | 138.32 ± 29.72
[2H]C([2H])([2H])Oc1ccc(/C=C/c2cc(OCCCC(C)(C)C(=O)O)cc(OC([2H])([2H])[2H])c2)cc1 [Compound I-2b, 3,4′-bis-[(trideuteratedmethyl)-oxy]-5-(4-methyl-4-carboxypentyloxy)-(E)-stilbene] | 231.48 ± 58.72 U/mg protein | 0.58 ± 0.29 μg/mg protein | 0.70 ± 0.08 nmol/mg protein | 33.60 ± 7.64 U/mg protein | 141.6 ± 27.6 U/L | 69.1 ± 23.3 U/L | 192.4 ± 78.4 U/L | 836.5 ± 375.5 U/L | 0.45 ± 0.08 μg/mg protein | 0.76 ± 0.06 nmol/mg protein | 0.52 ± 0.11 μg/mg protein | 0.75 ± 0.13 nmol/mg protein | 242.83 ± 83.29 | 26.47 ± 6.79 U/L | 105.33 ± 16.85
COc1ccc(/C=C/c2cc(OC)cc(OCCCC(C)(C)C(=O)O)c2)cc1 [Compound I-1b, 3,4′-dimethoxy-5-(4-methyl-4-carboxypentyloxy)-(E)-stilbene] | 204.78 ± 27.75 U/mg protein | 0.59 ± 0.06 μg/mg protein | 0.72 ± 0.12 nmol/mg protein | 29.99 ± 5.24 U/mg protein | 149.9 ± 52.9 U/L | 85.3 ± 46.4 U/L | 209.1 ± 63.2 U/L | 843.1 ± 247.9 U/L | 0.54 ± 0.12 μg/mg protein | 0.84 ± 0.09 nmol/mg protein | 0.71 ± 0.17 μg/mg protein | 0.91 ± 0.05 nmol/mg protein | 471.35 ± 29.88 | 47.33 ± 10.61 U/L | 161.6 ± 18.32
[2H]C([2H])([2H])Oc1cc(/C=C/c2ccc(OC)cc2)cc(OCCCC(C)(C)C(=O)O)c1 [Compound I-4b, 3-trideuterated methoxy-4′-methoxy-5-(4-methyl-4-carboxypentyloxy)-(E)-stilbene] | 224.33 ± 2.16 U/mg protein | 0.68 ± 0.27 μg/mg protein | 0.77 ± 0.14 nmol/mg protein | 28.64 ± 6.33 U/mg protein | 140.8 ± 60.2 U/L | 91.3 ± 32.5 U/L | 233.5 ± 90.6 U/L | 771.1 ± 210.2 U/L | 0.59 ± 0.12 μg/mg protein | 0.78 ± 0.24 nmol/mg protein | 0.74 ± 0.19 μg/mg protein | 0.96 ± 0.19 nmol/mg protein | 258.33 ± 219.45 | 16.07 ± 2.45 U/L | 72.73 ± 15.82
